Test system: 186277-243-T-J2-PDC complex spheroids, viability
Test: Anticancer human tumor 186277-243-T-J2-PDC patient-derived colon adenocarcinoma cell line growth inhibition [RAS]
Details: for IC50: curve of first compound; for viability, T/C: stronger effect = lower value
How it was run: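 Multi-cell-type spheroids: tumor cells plus HUVEC endothelial cells and mesenchymal stem cells. RAS-pathway inhibitors were combined with targeted agents, each dosed in half-log steps down from clinical Cmax, or from 10 microM when Cmax was unknown.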
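Further: spheroids exposed to compounds for 7 days before viability read.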

CC(=O)OC12COC1CC(O)C1(C)C(=O)C(O)C3=C(C)C(OC(=O)C(O)C(NC(=O)OC(C)(C)C)c4ccccc4)CC(O)(C(OC(=O)c4ccccc4)C21)C3(C)C (centres undefined) + CCn1c(-c2cc(N3CCN(C)CC3)cnc2C(C)OC)c2c3cc(ccc31)-c1csc(n1)CC(NC(=O)C1CC1C)C(=O)N1CCCC(N1)C(=O)OCC(C)(C)C2
IC50 (second compound 0.000949 µM): < 31.6 nM
IC50 (second compound 0.003 µM): < 31.6 nM
IC50 (second compound 0.00949 µM): < 31.6 nM
IC50 (second compound 0.03 µM): < 31.6 nM
IC50 (second compound 0.0949 µM): < 31.6 nM
IC50 (second compound 0.3 µM): < 31.6 nM
viability, T/C (second compound 0.000949 µM, first compound 0.0316 µM): 3.93%
viability, T/C (second compound 0.000949 µM, first compound 0.1 µM): 3.88%
viability, T/C (second compound 0.000949 µM, first compound 0.316 µM): 3.15%
viability, T/C (second compound 0.000949 µM, first compound 1 µM): 3.35%
viability, T/C (second compound 0.000949 µM, first compound 3.16 µM): 3.1%
viability, T/C (second compound 0.000949 µM, first compound 10 µM): 2.87%
viability, T/C (second compound 0.003 µM, first compound 0.0316 µM): 4.18%
viability, T/C (second compound 0.003 µM, first compound 0.1 µM): 3.41%
viability, T/C (second compound 0.003 µM, first compound 0.316 µM): 3.5%
viability, T/C (second compound 0.003 µM, first compound 1 µM): 3.44%
viability, T/C (second compound 0.003 µM, first compound 3.16 µM): 3.13%
viability, T/C (second compound 0.003 µM, first compound 10 µM): 3.15%
viability, T/C (second compound 0.00949 µM, first compound 0.0316 µM): 4.39%
viability, T/C (second compound 0.00949 µM, first compound 0.1 µM): 3.52%
viability, T/C (second compound 0.00949 µM, first compound 0.316 µM): 3.8%
viability, T/C (second compound 0.00949 µM, first compound 1 µM): 3.26%
viability, T/C (second compound 0.00949 µM, first compound 3.16 µM): 3.42%
viability, T/C (second compound 0.00949 µM, first compound 10 µM): 3.14%
viability, T/C (second compound 0.03 µM, first compound 0.0316 µM): 3.02%
viability, T/C (second compound 0.03 µM, first compound 0.1 µM): 3.1%
viability, T/C (second compound 0.03 µM, first compound 0.316 µM): 2.91%
viability, T/C (second compound 0.03 µM, first compound 1 µM): 3.18%
viability, T/C (second compound 0.03 µM, first compound 3.16 µM): 2.79%
viability, T/C (second compound 0.03 µM, first compound 10 µM): 2.64%
viability, T/C (second compound 0.0949 µM, first compound 0.0316 µM): 2.92%
viability, T/C (second compound 0.0949 µM, first compound 0.1 µM): 2.71%
viability, T/C (second compound 0.0949 µM, first compound 0.316 µM): 3.02%
viability, T/C (second compound 0.0949 µM, first compound 1 µM): 2.38%
viability, T/C (second compound 0.0949 µM, first compound 3.16 µM): 2.59%
viability, T/C (second compound 0.0949 µM, first compound 10 µM): 2.18%
viability, T/C (second compound 0.3 µM, first compound 0.0316 µM): 2.53%
viability, T/C (second compound 0.3 µM, first compound 0.1 µM): 2.47%
viability, T/C (second compound 0.3 µM, first compound 0.316 µM): 2.58%
viability, T/C (second compound 0.3 µM, first compound 1 µM): 2.35%
viability, T/C (second compound 0.3 µM, first compound 3.16 µM): 2.5%
viability, T/C (second compound 0.3 µM, first compound 10 µM): 2.28%

CCc1c2c(nc3ccc(O)cc13)-c1cc3c(c(=O)n1C2)COC(=O)[C@]3(O)CC + CCn1c(-c2cc(N3CCN(C)CC3)cnc2C(C)OC)c2c3cc(ccc31)-c1csc(n1)CC(NC(=O)C1CC1C)C(=O)N1CCCC(N1)C(=O)OCC(C)(C)C2
IC50 (second compound 0.000949 µM): 5.27 nM
IC50 (second compound 0.003 µM): 1.96 nM
IC50 (second compound 0.00949 µM): < 0.949 nM
IC50 (second compound 0.03 µM): < 0.949 nM
IC50 (second compound 0.0949 µM): < 0.949 nM
IC50 (second compound 0.3 µM): < 0.949 nM
viability, T/C (second compound 0.000949 µM, first compound 0.000949 µM): 113%
viability, T/C (second compound 0.000949 µM, first compound 0.003 µM): 58.7%
viability, T/C (second compound 0.000949 µM, first compound 0.00949 µM): 39.5%
viability, T/C (second compound 0.000949 µM, first compound 0.03 µM): 23.4%
viability, T/C (second compound 0.000949 µM, first compound 0.0949 µM): 9.6%
viability, T/C (second compound 0.000949 µM, first compound 0.3 µM): 6.83%
viability, T/C (second compound 0.003 µM, first compound 0.000949 µM): 69.5%
viability, T/C (second compound 0.003 µM, first compound 0.003 µM): 37.6%
viability, T/C (second compound 0.003 µM, first compound 0.00949 µM): 22.2%
viability, T/C (second compound 0.003 µM, first compound 0.03 µM): 13.2%
viability, T/C (second compound 0.003 µM, first compound 0.0949 µM): 5.72%
viability, T/C (second compound 0.003 µM, first compound 0.3 µM): 4.11%
viability, T/C (second compound 0.00949 µM, first compound 0.000949 µM): 18.6%
viability, T/C (second compound 0.00949 µM, first compound 0.003 µM): 10.9%
viability, T/C (second compound 0.00949 µM, first compound 0.00949 µM): 9.28%
viability, T/C (second compound 0.00949 µM, first compound 0.03 µM): 6.45%
viability, T/C (second compound 0.00949 µM, first compound 0.0949 µM): 3.6%
viability, T/C (second compound 0.00949 µM, first compound 0.3 µM): 2.17%
viability, T/C (second compound 0.03 µM, first compound 0.000949 µM): 9.49%
viability, T/C (second compound 0.03 µM, first compound 0.003 µM): 6.27%
viability, T/C (second compound 0.03 µM, first compound 0.00949 µM): 5.72%
viability, T/C (second compound 0.03 µM, first compound 0.03 µM): 4.05%
viability, T/C (second compound 0.03 µM, first compound 0.0949 µM): 2.52%
viability, T/C (second compound 0.03 µM, first compound 0.3 µM): 1.56%
viability, T/C (second compound 0.0949 µM, first compound 0.000949 µM): 5.21%
viability, T/C (second compound 0.0949 µM, first compound 0.003 µM): 4.44%
viability, T/C (second compound 0.0949 µM, first compound 0.00949 µM): 4.37%
viability, T/C (second compound 0.0949 µM, first compound 0.03 µM): 2.94%
viability, T/C (second compound 0.0949 µM, first compound 0.0949 µM): 2.29%
viability, T/C (second compound 0.0949 µM, first compound 0.3 µM): 1.3%
viability, T/C (second compound 0.3 µM, first compound 0.000949 µM): 4.39%
viability, T/C (second compound 0.3 µM, first compound 0.003 µM): 3.92%
viability, T/C (second compound 0.3 µM, first compound 0.00949 µM): 3.85%
viability, T/C (second compound 0.3 µM, first compound 0.03 µM): 2.91%
viability, T/C (second compound 0.3 µM, first compound 0.0949 µM): 2.37%
viability, T/C (second compound 0.3 µM, first compound 0.3 µM): 1.27%

Reference: PubChem BioAssay AID2060908 (Molecular Pharmacology Branch, DTP, NCI, 2025)
